Assay results as given in article PMC7377239, “Cardiovascular Effects of Polychlorinated Biphenyls and Their Major Metabolites” (Environmental Health Perspectives, 2020).
Read-outs that look alike come from different tables or passages of the source.

Experiments:
[1] = system: iCell endothelial cells (human iPSC-derived ECs); assay: High-content imaging cytotoxicity in iCell endothelial cells, 24 h; format: cell-based; settings: Homo sapiens, Endothelial cell, 24 hr; for viability at 0.1 µM / activity at 0.1 µM: 0.10 µM
Method in brief: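 Human iPSC-derived endothelial cells (passages 1–5) were grown to a fibronectin-coated monolayer, then exposed 24 h at 37 °C with 0.5% DMSO vehicle. Staining was Hoechst 33342, MitoTracker Orange and calcein AM, read by high-content imaging. Point of departure came from 4-parameter logistic fits, with a 1-SD vehicle cutoff and 100 µM as the top concentration.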

HUVECs = assay: High-content imaging cytotoxicity in HUVECs, 24 h; format: cell-based, human; settings: Homo sapiens, HUVEC, 24 h, HUVEC; for viability at 0.01 µM / activity at 0.01 µM / viability at 0.1 µM / activity at 0.1 µM / viability at 1 µM / activity at 1 µM / viability at 10 µM / activity at 10 µM / viability at 100 µM / activity at 100 µM: 0.00 µM = 100.00; for viability at 0.1 µM / activity at 0.1 µM: 0.10 µM
Method in brief: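 HUVECs (passages 1–5) grown to monolayer over 3–5 d, then exposed 24 h at 37°C, 5% CO2; stained with Hoechst 33342, MitoTracker Orange and calcein AM and imaged at 10×. Readouts normalized to 0.5% DMSO vehicle, four-parameter logistic fit; POD at one-SD cutoff, 100μM assigned when no response.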

[2] = iPSC-EC, 0.00 µM control = 100.00, read-out: endo.cyto.24hr
[3] = iPSC-EC, 0.00 µM control = 100.00, read-out: endo.mito.24hr
[4] = iPSC-EC, 0.00 µM control = 100.00, read-out: endo.mitoint.24hr
[5] = iPSC-EC, 0.00 µM control = 100.00, read-out: endo.nma.24hr
[6] = iPSC-EC, 0.00 µM control = 100.00, read-out: endo.tc.24hrs
[7] = HUVECs, 24 hr, read-out: huvec.cyto.24hr
[8] = HUVECs, 24 hr, read-out: huvec.mito.24hr
[9] = HUVECs, 24 hr, read-out: huvec.mitoint.24hr
[10] = HUVECs, 24 hr, read-out: huvec.nma.24hr
[11] = HUVECs, 24 hrs, read-out: huvec.tc.24hrs

O=C1C=CC(=O)C(c2ccc(Cl)cc2)=C1 [4-Cl-BQ, 2-(4-Chlorophenyl)benzo-2,5-quinone]
minimal effective concentration ([1]; endothelial cells (endo), cyto, read-out: POD endo.cyto.24hr): 3.82 µM | minimal effective concentration ([1]; endothelial cells (endo), mito, read-out: POD endo.mito.24hr): 3.82 µM | minimal effective concentration ([1]; endothelial cells (endo), mitoint, read-out: POD endo.mitoint.24hr): 14.2 µM | minimal effective concentration ([1]; endothelial cells (endo), nma, read-out: POD endo.nma.24hr): 13 µM | minimal effective concentration ([1]; endothelial cells (endo), tc, read-out: POD endo.tc.24hr): 2.56 µM | viability at 0.01 µM [1, 2]: 90% | activity at 0.01 µM [1, 3]: 90.5% | activity at 0.01 µM [1, 4]: 114% | activity at 0.01 µM [1, 5]: 105% | viability at 0.01 µM [1, 6]: 90% | viability at 0.1 µM [1, 2]: 89.7% | activity at 0.1 µM [1, 3]: 89.9% | activity at 0.1 µM [1, 4]: 103% | activity at 0.1 µM [1, 5]: 104% | viability at 0.1 µM [1, 6]: 89.7% | viability at 1 µM [1, 2]: 93.1% | activity at 1 µM [1, 3]: 93.1% | activity at 1 µM [1, 4]: 99.3% | activity at 1 µM [1, 5]: 103% | viability at 1 µM [1, 6]: 93.1% | viability at 10 µM [1, 2]: 87.8% | activity at 10 µM [1, 3]: 87.7% | activity at 10 µM [1, 4]: 95.2% | activity at 10 µM [1, 5]: 102% | viability at 10 µM [1, 6]: 87.8% | viability at 100 µM [1, 2]: 12.1% | activity at 100 µM [1, 3]: 3.06% | activity at 100 µM [1, 4]: 30.1% | activity at 100 µM [1, 5]: 161% | viability at 100 µM [1, 6]: 31.3% | minimal effective concentration ([1]; iPSC-EC, top concentration 100.00 µM, read-out: endo.cyto.24hr POD): 3.82 µM | minimal effective concentration ([1]; iPSC-EC, top concentration 100.00 µM, read-out: endo.mito.24hr POD): 3.82 µM | minimal effective concentration ([1]; iPSC-EC, top concentration 100.00 µM, read-out: endo.mitoint.24hr POD): 14.2 µM | minimal effective concentration ([1]; iPSC-EC, top concentration 100.00 µM, read-out: endo.nma.24hr POD): 13 µM | minimal effective concentration ([1]; iPSC-EC, top concentration 100.00 µM, read-out: endo.tc.24hrs POD): 2.56 µM | minimal effective concentration (HUVECs; cyto, 24 hr, read-out: POD huvec.cyto.24hr): 0.00637 µM | minimal effective concentration (HUVECs; mito, 24 hr, read-out: POD huvec.mito.24hr): 0.08 µM | minimal effective concentration (HUVECs; mitoint, 24 hr, read-out: POD huvec.mitoint.24hr): 0.68 µM | minimal effective concentration (HUVECs; nma, 24 hr, read-out: POD huvec.nma.24hr): 0.53 µM | minimal effective concentration (HUVECs; tc, 24 hr, read-out: POD huvec.tc.24hr): 0.00637 µM | viability at 0.01 µM (HUVECs; [7]): 89.2% | activity at 0.01 µM (HUVECs; [8]): 87.8% | activity at 0.01 µM (HUVECs; [9]): 92.4% | activity at 0.01 µM (HUVECs; [10]): 101% | viability at 0.1 µM (HUVECs; [7]): 101% | activity at 0.1 µM (HUVECs; [8]): 101% | activity at 0.1 µM (HUVECs; [9]): 105% | activity at 0.1 µM (HUVECs; [10]): 101% | viability at 1 µM (HUVECs; [7]): 75.5% | activity at 1 µM (HUVECs; [8]): 69.3% | activity at 1 µM (HUVECs; [9]): 58.6% | activity at 1 µM (HUVECs; [10]): 81.8% | viability at 10 µM (HUVECs; [7]): 56% | activity at 10 µM (HUVECs; [8]): 30.5% | activity at 10 µM (HUVECs; [9]): 10.8% | activity at 10 µM (HUVECs; [10]): 74.2% | viability at 100 µM (HUVECs; [7]): 87.4% | activity at 100 µM (HUVECs; [8]): 1.29% | activity at 100 µM (HUVECs; [9]): 44% | activity at 100 µM (HUVECs; [10]): 73.5% | minimal effective concentration (HUVECs; HUVECs, 24 hr, top concentration 100.00 µM, read-out: huvec.cyto.24hr POD): 0.00637 µM | minimal effective concentration (HUVECs; HUVECs, 24 hr, top concentration 100.00 µM, read-out: huvec.mito.24hr POD): 0.08 µM | minimal effective concentration (HUVECs; HUVECs, 24 hr, top concentration 100.00 µM, read-out: huvec.mitoint.24hr POD): 0.68 µM | minimal effective concentration (HUVECs; HUVECs, 24 hr, top concentration 100.00 µM, read-out: huvec.nma.24hr POD): 0.53 µM | viability at 0.01 µM (HUVECs; [11]): 89.3% | viability at 0.1 µM (HUVECs; [11]): 101% | viability at 1 µM (HUVECs; [11]): 75.5% | viability at 10 µM (HUVECs; [11]): 56% | viability at 100 µM (HUVECs; [11]): 99.4% | minimal effective concentration (HUVECs; HUVECs, 24 hrs, top concentration 100.00 µM, read-out: huvec.tc.24hrs POD): 0.00637 µM
